{"source": "patent EP0364584A1", "about": "“ANTIDOTE FOR ORGANIC PHOSPHORUS COMPOUND POISONING” (priority 1988, dated 1989)", "experiment": "Content of the drugs in blood and brain after intramuscular administration (Askew method)", "format": "in vivo, Ratten", "conditions": "for concentration at 2 h: 2 St., read-out: Konzentration (µg/g) 2 St. (converted); for concentration at 3 h: 3 St., read-out: Konzentration (µg/g) 3 St.; for concentration at 5 min: read-out: Konzentration (µg/g) 5 min; for concentration at 20 min: read-out: Konzentration (µg/g) 20 min (converted); for concentration at 0.5 h: 30 min, read-out: Konzentration (µg/g) 30 min; for concentration at 1 h: read-out: Konzentration (µg/g) I St.; for concentration at 10 min: IO min, read-out: Konzentration (µg/g) IO min (converted)", "protocol": "Mit Hilfe der Methode von Askew (1956) wurde in der Dynamik der Gehalt des erfindungsgemäßen Arzneimittels im Blut und Gehirn der Tiere untersucht. Die Untersuchungen wurden im Vergleich zum bekannten Präparak TMB-4 vorgenommen. Die Geschwindigkeit des Eindringens beider Präparate ins Blut und deren Konzentration wurden bei der-intramuskulären Einführung in Dosen von 20 ..und 50 mg/kg und der Gehirnspiegel - in einer Dosis von 50 mg/kg bestimmt. […]\nEs wurde festgestellt, daß die Präparate schnell (nach 5 min) von der Einführungsstelle ins Blut eindringen, dabei wurde unabhängig von der Prüfdosis der Präparate deren Maximalgehalt im Blut 20 min nach der Einführung beobachtet, zwar erhöhte die Vergrößerung der Dosis der Präparate bis 50 mg/kg wesentlich deren Konzentrationsniveau während der ganzen Beobachtungsfrist.\nDie im Vergleich zu TMB-4 durchgeführten Untersuchungen haben ergeben, dass während der ersten Stunde der Blutgehalt und das Anwachsen der Konzentrationen beider Präparate gleich waren. […] Die Untersuchungsergebnisse sind in der Tabelle 3 angeführt.\nNach den Ergebnissen der durchgeführten Untersuchungen wurde festgestellt, dass das erfindungsgemässe Arz- neimittel bei der intramuskulären Einführung schnell ins Blut und Gehirn des Tieres eindringt und zum Unterschied von TMB-4 eine längere Zeit im 3lutstrom zirkuliert und von 5 min an bis 4 Stunden Beobachtung im Gehirn in bedeutend grösseren Mengen enthalten ist.", "key": {"[1]": {"conditions": "rat, blood, im, Blut, Dosis 20 mg/kg intramuskulär, Ratten"}, "[2]": {"conditions": "rat, blood, im, Blut, Dosis 50 mg/kg intramuskulär, Ratten"}, "[3]": {"conditions": "rat, brain, im, Gehirn, Dosis 50 mg/kg intramuskulär, Ratten"}}, "note": "Like-named read-outs stand apart in the source and are kept apart here."}
{"smiles": "C=CC[n+]1ccccc1C=NO", "note": "[das erfindungsgemässe Arzneimittel, N-Allyl-2-pyridinaldoxiinbromid]", "values": [{"measurement": "Konzentration (µg/g) I St.", "setting": "Blut, Dosis 50 mg/kg intramuskulär, I St., Ratten", "result": "IO,I"}, {"measurement": "Konzentrationsniveau im Blut im Vergleich zu TMB-4", "setting": "late time points (printed: 3 und 1 Stunden)", "result": "ungefähr um das Doppelte"}, {"measurement": "concentration at 2 h", "setting": "[1]", "result": 2.3, "unit": "µg/g"}, {"measurement": "concentration at 3 h", "setting": "[1]", "result": 0.92, "unit": "µg/g"}, {"measurement": "concentration at 5 min", "setting": "[1]", "result": 2.95, "unit": "µg/g"}, {"measurement": "concentration at 20 min", "setting": "[1]", "result": 5.16, "unit": "µg/g"}, {"measurement": "concentration at 0.5 h", "setting": "[1]", "result": 4.7, "unit": "µg/g"}, {"measurement": "concentration at 1 h", "setting": "rat, blood, im, Blut, Dosis 20 mg/kg intramuskulär, I St., Ratten", "result": 4.4, "unit": "µg/g"}, {"measurement": "concentration at 10 min", "setting": "[1]", "result": 4.95, "unit": "µg/g"}, {"measurement": "concentration at 2 h", "setting": "[2]", "result": 4.6, "unit": "µg/g"}, {"measurement": "concentration at 3 h", "setting": "[2]", "result": 3.6, "unit": "µg/g"}, {"measurement": "concentration at 5 min", "setting": "[2]", "result": 16.2, "unit": "µg/g"}, {"measurement": "concentration at 20 min", "setting": "[2]", "result": 18, "unit": "µg/g"}, {"measurement": "concentration at 0.5 h", "setting": "[2]", "result": 12.7, "unit": "µg/g"}, {"measurement": "concentration at 10 min", "setting": "[2]", "result": 19, "unit": "µg/g"}, {"measurement": "Tmax", "setting": "rat, blood, im, intramuskuläre Einführung, summary statement, read-out: Maximalniveau erreicht nach", "result": "20 to 30", "unit": "min"}, {"measurement": "concentration at 2 h", "setting": "[3]", "result": 1.12, "unit": "µg/g"}, {"measurement": "concentration at 3 h", "setting": "[3]", "result": 0.64, "unit": "µg/g"}, {"measurement": "concentration at 5 min", "setting": "[3]", "result": 2.64, "unit": "µg/g"}, {"measurement": "concentration at 20 min", "setting": "[3]", "result": 4, "unit": "µg/g"}, {"measurement": "concentration at 0.5 h", "setting": "[3]", "result": 3.75, "unit": "µg/g"}, {"measurement": "concentration at 1 h", "setting": "rat, brain, im, Gehirn, Dosis 50 mg/kg intramuskulär, I St., Ratten", "result": 2.06, "unit": "µg/g"}, {"measurement": "concentration at 10 min", "setting": "[3]", "result": 5.65, "unit": "µg/g"}]}
